Assay results taken from PMC5042751 (Molecular Medicine Reports, 2016).
Like-named read-outs stand apart in the source and are kept apart here.

Assays:
Mrp2 [1] = assay: Intestinal and hepatic protein expression by western blotting; assay type: in vivo, rats
Mdr1 = conditions: for decrease in mRNA expression level of Mdr1: rat liver
Slco2b1 = assay: Intestinal mRNA expression by RT-qPCR; assay type: in vivo, rats; conditions: rat small intestine
Ugt1a1 [2] = assay: Intestinal and hepatic protein expression by western blotting; assay type: in vivo, rats
Slco1b2 = assay: Hepatic mRNA expression by RT-qPCR; assay type: in vivo, rats; conditions: rat liver
Cyp3a2 [3] = tested on: Cyp3a2
Bcrp [4] = assay: Intestinal and hepatic mRNA expression by RT-qPCR; assay type: in vivo, rats
P-gp = conditions: for decrease in protein expression level of P-gp: Que 100 mg/kg (high-dose) oral 7 days vs control
Mrp2 [5] = assay: Intestinal and hepatic mRNA expression by RT-qPCR; assay type: in vivo, rats
Cyp3a1 [6] = tested on: Cyp3a1
Cyp3a1 [7] = tested on: Cyp3a1; remark: listed apart in the source
OATP1B2 = assay: Hepatic protein expression by western blotting; assay type: in vivo, rats; conditions: rat liver
Bcrp [8] = assay: Intestinal and hepatic protein expression by western blotting; assay type: in vivo, rats
Ugt1a1 [9] = assay: Intestinal and hepatic mRNA expression by RT-qPCR; assay type: in vivo, rats
OATP2B1 = assay: Intestinal protein expression by western blotting; assay type: in vivo, rats; conditions: rat small intestine
Cyp3a2 [10] = tested on: Cyp3a2; remark: listed apart in the source
[11] = rat liver, Que 25 mg/kg oral 7 days without CsA (Que-WOC) vs control
[12] = rat liver, Que 50 mg/kg oral 7 days without CsA (Que-WOC) vs control
[13] = rat liver, Que 100 mg/kg oral 7 days without CsA (Que-WOC) vs control
[14] = rat liver, Que 100 mg/kg with CsA 10 mg/kg oral 7 days (Que-WC) vs CsA treatment
[15] = rat small intestine, Que 25 mg/kg oral 7 days without CsA (Que-WOC) vs control
[16] = rat small intestine, Que 50 mg/kg oral 7 days without CsA (Que-WOC) vs control
[17] = rat small intestine, Que 100 mg/kg oral 7 days without CsA (Que-WOC) vs control
[18] = Que 25 mg/kg oral 7 days without CsA (Que-WOC) vs control
[19] = Que 50 mg/kg oral 7 days without CsA (Que-WOC) vs control
[20] = Que 100 mg/kg oral 7 days without CsA (Que-WOC) vs control
[21] = rat liver, Que 25 mg/kg with CsA 10 mg/kg oral 7 days (Que-WC) vs CsA alone
[22] = rat liver, Que 50 mg/kg with CsA 10 mg/kg oral 7 days (Que-WC) vs CsA alone
[23] = rat liver, Que 100 mg/kg with CsA 10 mg/kg oral 7 days (Que-WC) vs CsA alone
[24] = Que 50 mg/kg with CsA 10 mg/kg oral 7 days (Que-WC) vs CsA treatment
[25] = Que 100 mg/kg with CsA 10 mg/kg oral 7 days (Que-WC) vs CsA treatment
[26] = rat liver, Que 25 mg/kg (low-dose) oral 7 days vs control
[27] = rat liver, Que 50 mg/kg (moderate-dose) oral 7 days vs control
[28] = rat liver, Que 100 mg/kg (high-dose) oral 7 days vs control

O=c1c(O)c(-c2ccc(O)c(O)c2)oc2cc(O)cc(O)c12 [Que, 3,3′,4′,5,7-pentahydroxyflavone]
decrease in protein expression level of MRP2 (Mrp2 [1]; [11]): 14%
decrease in protein expression level of MRP2 (Mrp2 [1]; rat liver, Que 25 mg/kg with CsA 10 mg/kg oral 7 days (Que-WC) vs CsA treatment): 22%
decrease in protein expression level of MRP2 (Mrp2 [1]; [12]): 27%
decrease in protein expression level of MRP2 (Mrp2 [1]; rat liver, Que 50 mg/kg with CsA 10 mg/kg oral 7 days (Que-WC) vs CsA treatment): 23%
decrease in protein expression level of MRP2 (Mrp2 [1]; [13]): 58%
decrease in protein expression level of MRP2 (Mrp2 [1]; [14]): 35%
decrease in protein expression level of MRP2 (Mrp2 [1]; [15]): 13%
decrease in protein expression level of MRP2 (Mrp2 [1]; [16]): 45%
decrease in protein expression level of MRP2 (Mrp2 [1]; [17]): 93%
decrease in mRNA expression level of Mdr1 (Mdr1; [18]): 64%
decrease in mRNA expression level of Mdr1 (Mdr1; Que 25 mg/kg with CsA 10 mg/kg oral 7 days (Que-WC) vs CsA alone): 68%
decrease in mRNA expression level of Mdr1 (Mdr1; [19]): 87%
decrease in mRNA expression level of Mdr1 (Mdr1; Que 50 mg/kg with CsA 10 mg/kg oral 7 days (Que-WC) vs CsA alone): 68%
decrease in mRNA expression level of Mdr1 (Mdr1; [20]): 91%
decrease in mRNA expression level of Mdr1 (Mdr1; Que 100 mg/kg with CsA 10 mg/kg oral 7 days (Que-WC) vs CsA alone): 90%
change in mRNA expression level of Mdr1 (Mdr1; [15]): did not produce a significant effect
increase in mRNA expression level of Mdr1 (Mdr1; [16]): 75%
increase in mRNA expression level of Mdr1 (Mdr1; [17]): 80%
decrease in mRNA expression level of Slco2b1 (Slco2b1; [18]): 84%
decrease in mRNA expression level of Slco2b1 (Slco2b1; [19]): 92%
decrease in mRNA expression level of Slco2b1 (Slco2b1; [20]): 97%
decrease in protein expression level of UGT1A1 (Ugt1a1 [2]; [11]): 16%
change in protein expression level of UGT1A1 (Ugt1a1 [2]; [21]): did not produce significant effects
decrease in protein expression level of UGT1A1 (Ugt1a1 [2]; [12]): 42%
change in protein expression level of UGT1A1 (Ugt1a1 [2]; [22]): did not produce significant effects
decrease in protein expression level of UGT1A1 (Ugt1a1 [2]; [13]): 87%
decrease in protein expression level of UGT1A1 (Ugt1a1 [2]; [23]): 72%
decrease in protein expression level of UGT1A1 (Ugt1a1 [2]; [15]): 12%
decrease in protein expression level of UGT1A1 (Ugt1a1 [2]; [16]): 41%
decrease in protein expression level of UGT1A1 (Ugt1a1 [2]; [17]): 91%
decrease in mRNA expression level of Slco1b2 (Slco1b2; [18]): 79%
decrease in mRNA expression level of Slco1b2 (Slco1b2; Que 25 mg/kg with CsA 10 mg/kg oral 7 days (Que-WC) vs CsA treatment): 72%
decrease in mRNA expression level of Slco1b2 (Slco1b2; [19]): 92%
decrease in mRNA expression level of Slco1b2 (Slco1b2; [24]): 90%
decrease in mRNA expression level of Slco1b2 (Slco1b2; [20]): 95%
decrease in mRNA expression level of Slco1b2 (Slco1b2; [25]): 94%
decrease in mRNA expression level of Cyp3a2 (Cyp3a2 [3]; [11]): 21%
decrease in mRNA expression level of Cyp3a2 (Cyp3a2 [3]; [21]): 16%
decrease in mRNA expression level of Cyp3a2 (Cyp3a2 [3]; [12]): 37%
decrease in mRNA expression level of Cyp3a2 (Cyp3a2 [3]; [22]): 48%
decrease in mRNA expression level of Cyp3a2 (Cyp3a2 [3]; [13]): 49%
decrease in mRNA expression level of Cyp3a2 (Cyp3a2 [3]; [23]): 57%
decrease in mRNA expression level of Cyp3a2 (Cyp3a2 [3]; [15]): 61%
decrease in mRNA expression level of Cyp3a2 (Cyp3a2 [3]; [16]): 70%
decrease in mRNA expression level of Cyp3a2 (Cyp3a2 [3]; [17]): 90%
decrease in mRNA expression level of Bcrp (Bcrp [4]; [11]): 55%
decrease in mRNA expression level of Bcrp (Bcrp [4]; [21]): 68%
decrease in mRNA expression level of Bcrp (Bcrp [4]; [12]): 77%
decrease in mRNA expression level of Bcrp (Bcrp [4]; [22]): 77%
decrease in mRNA expression level of Bcrp (Bcrp [4]; [13]): 88%
decrease in mRNA expression level of Bcrp (Bcrp [4]; [23]): 89%
decrease in mRNA expression level of Bcrp (Bcrp [4]; [15]): 46%
decrease in mRNA expression level of Bcrp (Bcrp [4]; [16]): 70%
decrease in mRNA expression level of Bcrp (Bcrp [4]; [17]): 92%
change in protein expression level of P-gp (P-gp; [26]): did not produce a significant effect
change in protein expression level of P-gp (P-gp; [27]): did not produce a significant effect
decrease in protein expression level of P-gp (P-gp; rat liver): 84%
decline in protein expression level of P-gp (P-gp; [14]): 76%
change in protein expression level of P-gp (P-gp; rat small intestine, Que 25 mg/kg (low-dose) oral 7 days vs control): did not produce a significant effect
change in protein expression level of P-gp (P-gp; rat small intestine, Que 50 mg/kg (moderate-dose) oral 7 days vs control): did not produce a significant effect
decrease in protein expression level of P-gp (P-gp; rat small intestine): 81%
decrease in mRNA expression level of Mrp2 (Mrp2 [5]; [11]): 45%
decrease in mRNA expression level of Mrp2 (Mrp2 [5]; [21]): 38%
decrease in mRNA expression level of Mrp2 (Mrp2 [5]; [12]): 52%
decrease in mRNA expression level of Mrp2 (Mrp2 [5]; [22]): 36%
decrease in mRNA expression level of Mrp2 (Mrp2 [5]; [13]): 98%
decrease in mRNA expression level of Mrp2 (Mrp2 [5]; [23]): 99%
decrease in mRNA expression level of Mrp2 (Mrp2 [5]; [15]): 45%
decrease in mRNA expression level of Mrp2 (Mrp2 [5]; [16]): 69%
decrease in mRNA expression level of Mrp2 (Mrp2 [5]; [17]): 96%
change in protein expression level of CYP3A1 (Cyp3a1 [6]; [26]): did not produce significant effects
change in protein expression level of CYP3A1 (Cyp3a1 [6]; [27]): did not produce significant effects
decrease in protein expression level of CYP3A1 (Cyp3a1 [6]; [28]): 70%
decrease in protein expression level of CYP3A1 (Cyp3a1 [6]; [23]): 56%
decrease in protein expression level of CYP3A1 (Cyp3a1 [6]; [15]): 17%
decrease in protein expression level of CYP3A1 (Cyp3a1 [6]; [16]): 45%
decrease in protein expression level of CYP3A1 (Cyp3a1 [6]; [17]): 91%
decrease in mRNA expression level of Cyp3a1 (Cyp3a1 [7]; [11]): 37%
decrease in mRNA expression level of Cyp3a1 (Cyp3a1 [7]; [21]): 31%
decrease in mRNA expression level of Cyp3a1 (Cyp3a1 [7]; [12]): 86%
decrease in mRNA expression level of Cyp3a1 (Cyp3a1 [7]; [22]): 77%
decrease in mRNA expression level of Cyp3a1 (Cyp3a1 [7]; [13]): 98%
decrease in mRNA expression level of Cyp3a1 (Cyp3a1 [7]; [23]): 65%
decrease in mRNA expression level of Cyp3a1 (Cyp3a1 [7]; [15]): 45%
decrease in mRNA expression level of Cyp3a1 (Cyp3a1 [7]; [16]): 83%
decrease in mRNA expression level of Cyp3a1 (Cyp3a1 [7]; [17]): 88%
change in protein expression level of OATP1B2 (OATP1B2; [18]): did not produce a significant effect
decrease in protein expression level of OATP1B2 (OATP1B2; [19]): 48%
decrease in protein expression level of OATP1B2 (OATP1B2; [24]): 38%
decrease in protein expression level of OATP1B2 (OATP1B2; [20]): 86%
decrease in protein expression level of OATP1B2 (OATP1B2; [25]): 72%
decrease in protein expression level of BCRP (Bcrp [8]; [11]): 7%
decrease in protein expression level of BCRP (Bcrp [8]; [21]): 23%
decrease in protein expression level of BCRP (Bcrp [8]; [12]): 27%
decrease in protein expression level of BCRP (Bcrp [8]; [22]): 31%
decrease in protein expression level of BCRP (Bcrp [8]; [13]): 75%
decrease in protein expression level of BCRP (Bcrp [8]; [23]): 67%
decrease in protein expression level of BCRP (Bcrp [8]; [15]): 17%
decrease in protein expression level of BCRP (Bcrp [8]; [16]): 49%
decrease in protein expression level of BCRP (Bcrp [8]; [17]): 90%
decrease in mRNA expression of Ugt1a1 (Ugt1a1 [9]; [11]): 41%
decrease in mRNA expression level of Ugt1a1 (Ugt1a1 [9]; [21]): 28%
decrease in mRNA expression of Ugt1a1 (Ugt1a1 [9]; [12]): 81%
decrease in mRNA expression level of Ugt1a1 (Ugt1a1 [9]; [22]): 71%
decrease in mRNA expression of Ugt1a1 (Ugt1a1 [9]; [13]): 92%
decrease in mRNA expression level of Ugt1a1 (Ugt1a1 [9]; [23]): 92%
decrease in mRNA expression of Ugt1a1 (Ugt1a1 [9]; [15]): 20%
decrease in mRNA expression of Ugt1a1 (Ugt1a1 [9]; [16]): 76%
decrease in mRNA expression of Ugt1a1 (Ugt1a1 [9]; [17]): 84%
change in protein expression level of OATP2B1 (OATP2B1; [18]): did not produce a significant effect
decrease in protein expression level of OATP2B1 (OATP2B1; [19]): 43%
decrease in protein expression level of OATP2B1 (OATP2B1; [20]): 76%
change in protein expression level of CYP3A2 (Cyp3a2 [10]; [26]): did not produce significant effects
change in protein expression level of CYP3A2 (Cyp3a2 [10]; [27]): did not produce significant effects
decrease in protein expression level of CYP3A2 (Cyp3a2 [10]; [28]): 73%
decrease in protein expression level of CYP3A2 (Cyp3a2 [10]; [23]): 54%
decrease in protein expression level of CYP3A2 (Cyp3a2 [10]; [15]): 14%
decrease in protein expression level of CYP3A2 (Cyp3a2 [10]; [16]): 40%
decrease in protein expression level of CYP3A2 (Cyp3a2 [10]; [17]): 95%
